In test [1] the test system is Normal primitive CD34-positive cord blood cells. The test can be described thus: cells. Particulars: Homo sapiens, CD34-positive cell, read-out: EC50 in normal primitive CD34-positive cord blood cells.
For test [2], the system named is OCI-AML3 cells. Description: OCI-AML3 cell growth inhibition, dose-response viability assay (CellTiterGlo). Particulars: OCI-AML3 cells. Format: cell-based. Put shortly: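 OCI-AML3 cells seeded, then exposed to compound in serial dilutions from 10 μM to 0.5 nM, in duplicate or quadruplicate. Viability read by CellTiter-Glo.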
(In general: In ATP-based viability assays light output follows the ATP content of the culture.)

The test system of test [3] is Complex I. To be noted: OCI-AML3 cells, ubiquinone-dependent vs -independent activity.
In test [4] the test system is OCI-AML3 leukemic cells. The procedure:
Oxygen consumption rates and extracellular acidification rates were measured using a 96-well Seahorse Bioanalyzer XFe96® or XFe24® according to the manufacturer's instructions (Agilent Technologies). Seahorse XF Base medium was supplemented with 1 mM pyruvate, 2 mM glutamine and 10 mM glucose in the case of Mitochondrial Stress Test and with 1 mM pyruvate, 2 mM glutamine and no glucose in the case of Glycolytic Stress Test. The pH of the Seahorse media was then adjusted at 7.4 prior to assay. In brief, leukemic cells were seeded into Seahorse 96-well (or 24-well) plates pre-coated for 3 h with poly-lysine (Sigma-Aldrich, P4707) at a density of 75,000 cells/well in 100 μL (or 150,000 cells/well, in 150 μL) of temperature/CO2 pre-adjusted Seahorse media per well. The Seahorse plates were then centrifuged at 1400 rpm for 5 min. An additional 75 μL (or 375 μL) of Seahorse media was then added and cells were eventually analyzed following the manufacturer's instructions by adding compounds in a constant volume of 25 μL (or 75 μL). Compounds were acutely injected in cells at a final concentration of 1 μM for Mubritinib, 1 μM for Oligomycin, 0.5 μM for FCCP, 0.5 μM for Rotenone/Antimycin A, Glucose 10 mM and 2-Deoxy-Glucose 50 mM.

For test [5], the system named is ETC complex I. To be noted: cell free assay. An excerpt: The cell-free kit assay for ETC complex I activity was purchased from MitoSciences (Abcam, Cambridge, UK), and used in accordance with the manufacturer's protocol.
The test system of test [6] is OCI-AML5 cells. To be noted: 6-day culture, 384-well plates.
The test system of test [7] is AML patient cells. Description: Primary AML patient cell dose-response viability assay (chemical screen). To be noted: for EC50: Homo sapiens.
Test [8] concerns OCI-AML3 cells. The procedure:
LC/MS metabolite measurements were carried out at the McGill Metabolomics platform. Authentic metabolite standards were purchased from Sigma-Aldrich Co., while the following LC/MS grade solvents and additives were purchased from Fisher: ammonium acetate, formic acid, water, methanol, and acetonitrile. OCI-AML3 cells (5 million cells, quadruplicates, treated with either DMSO or Mubritinib 500 nM for 20 h) were washed twice with ice-cold 150 mM ammonium formate pH 7.2. Metabolites were then extracted using 380 μl of LC/MS grade 50% methanol/50% water mixture and 220 μl of cold acetonitrile. Samples were then homogenized by 1.4 mm ceramic bead beating 2 min at 30 Hz (TissueLyser, Qiagen). A volume of 300 μl of ice-cold water and 600 μl of ice-cold methylene chloride were added to the lysates. Samples were vortexed and allowed to rest on ice for 10 min for phase separation followed by centrifugation at 4,000 rpm for 5 min. The upper aqueous layer was transferred to a fresh pre-chilled tube. Samples were eventually dried by vacuum centrifugation operating at −4° C. (Labconco) and stored at −80° C. until ready for LC-MS/MS data collection. For LC-MS/MS analysis, specimens were first re-suspended in 50 μl of water and clarified by centrifugation for 15 min at 15,000 rpm at 1° C. Samples were maintained at 4° C. for the duration of the LC-MS/MS analysis in the autosampler. Specimens were separated by U-HPLC (Ultra-High-Performance Liquid Chromatography) (1290 Infinity, Agilent Technologies) using a Scherzo SM-C18 (3 mm×150 mm) 3 μm column and guard column (Imtakt USA) operating at 10° C.

Test [9] concerns pyruvate dehydrogenase (PDH). To be noted: OCI-AML3 cells.
The test system of test [10] is OCI-AML3 leukemic cells. To be noted: 500 nM, 24 h. An excerpt:
(§1) The following FACS antibodies were used: anti-human CD45 Pacific Blue (BioLegend 304029), CD45 fluorescein isothiocyanate (FITC; BioLegend 304006), CD33 phycoerythrin (PE; BD Bioscience 555450), CD33 BV421 (BD 562854), CD34 […] (APC; BD Bioscience 555824), CD34 APC (Stem Cell Technologies 10613), CD3 FITC (BD Bioscience 555332), CD4 APC-Cy7 (BD 560158), CD8 APC (BD 555369), CD3 PE-Cy5 (BD 555334), CD19 PE-Cy7(BD Bioscience 557835), anti-mouse CD45.1 APC-efluor730 (eBioscience 47-0453-82), ERBB2-PE (Biolegend®, 324406), Annexin V FITC (BD Bioscience®, 556419). Dead cells were stained using Propidium iodide at a final concentration of 1 μg/mL. For ROS quantification cells were stained with 1 μM H2DCFDA (Thermo Fisher, […]) under normal growth conditions. Cells were analyzed on LSRII® flow cytometer (BD Bioscience®), BD Canto® II cytometer (BD Bioscience) or on an IQue Screener (Intellicyt®) and results were analyzed with BD fluorescence-activated cell sorter (FACS) Diva®4.1 and FlowJo®X software.

Test [11] has as its system OCI-AML3 cells.
Excerpt: as §1
This is another data set of the same source.

The mark [12] stands for this setting: 500 nM, 24 h, relative to DMSO control.

Where two headings read alike, the source gives them in different places.

Regarding `FC(F)(F)c1ccc(/C=C/c2nc(COc3ccc(CCCCn4ccnn4)cc3)co2)cc1` [Mubritinib], the half-maximal effective concentration (EC50) in test [1] is over 375 nM; in test [7] (read-out: Median EC50 in the AML population tested), about 375 nM; in test [7] (read-out: median EC50, AML specimens with simultaneous mutations in NPM1, DNMT3A and FLT3-ITD), 96 nM; in test [7] (read-out: median EC50, other AMLs subtypes), 423 nM. Further, in test [2], the “OCI-AML3 cells sensitive to the compound (dose response)” value is “sensitive”. Further, the “nature of inhibitory effect on complex I” value in test [3] is “NADH-independent (i.e. ubiquinone-dependent)”. Further, the glycolytic switch result in test [4] (OCI-AML3 cells) is reported as “induce a glycolytic switch”. In addition, in test [4] (acute injection, 1 μM), the oxygen consumption rate result is reported as “impaired”. The “effect on ETC Complex I activity” value in [5] is “inhibitory effect”. In [6], the “OCI-AML5 response to compound-induced cell death” value was “resistant”. For the same molecule, in test [7] (dose response validation screening, large cohort), the “sensitivity of HOX-high versus HOX-med/low AML cells” value is given as “significantly more sensitive”. Further, in test [7] (primary screen of 60 compounds), the “sensitivity of HOX-high versus HOX-med/low patient cells” value is recorded as “significantly more sensitive”. Also, the “levels of oxidized glutathione” value in test [8] (setting [12]) is recorded as “increased”. The “levels of reduced glutathione” value in test [8] (setting [12]) is recorded as “decreased”. Besides, the “levels of citric acid cycle intermediates (citrate, alpha-ketoglutarate, succinate, fumarate, malate)” value in [8] (OCI-AML3 cells) is “reduces”. In addition, in [9], the “effect on pyruvate dehydrogenase (PDH)” value is on record as “inhibit pyruvate dehydrogenase (PDH) in an indirect fashion”. The “level of ROS activity (hydroxyl, peroxyl), DCFDA” value in test [10] is given as “increased”. Also, in test [11] (100 nM 24 h, 6 mM NAC pre-incubation 4 hours), the “compound-induced apoptosis in the presence of ROS scavenger N-acetyl-cysteine (NAC)” value is listed as “significantly decreased”. Further, the “Annexin V staining (marker of apoptosis)” value in test [11] (24 hours, 100 nM or 10 μM) is given as “increase”. Besides, in test [11] (27 hours of treatment), the “number of dead (PI-positive) cells” value was “increase”. Besides, the “live cell counts (PI-negative cells)” value in [11] (four days of treatment, dose-dependent) is given as “reduction”.

One may read the EC50 as the concentration that produces a half-maximal response.

(Values after patent US11760754B2, “Heterocyclic mitochondrial activity inhibitors and uses thereof” (UNIVERSITÉ DE MONTRÉAL, priority 2017, dated 2023).)
